In publication PMC4976923, “Potent Allosteric Dengue Virus NS5 Polymerase Inhibitors: Mechanism of Action and Resistance Profiling” (PLoS Pathogens, 2016):

Tests used:
DENV2 FL NS5 = biological target: T1, DENV2 FL NS5 (Dengue virus type 2, UniProt P14340); assay: DENV2 FL NS5 de novo initiation FAPA assay; type: biochemical; conditions: one experiment; read-out: DENV FL NS5 de novo initiation FAPA, IC50, DENV2
T1 construct: made in house
Description: (§1) DENV1-4 FL NS5 dnI assays were performed as described previously. Briefly, compounds from 0–20 or -100 μM concentrations are two-fold serially diluted into 384-well black opaque plates (Corning Costar), after which 100 nM DENV FL NS5 protein was added and the plates incubated at RT for 20 min. RNA and ATTO-CTP, ATP, GTP and UTP were then added and the plates incubated for another 120 min. […] For order-of-addition experiments, DENV4 FL NS5 was incubated for one hour at RT with RNA, ATP, and GTP or RNA, ATP, GTP and ATTO-CTP, followed by exposure to serially diluted compounds for 20 min at RT. The missing components (ATTO-CTP and UTP or UTP alone) were added and the reactions continued for 120 min after which STOP buffer was added as before. All datapoints were performed in duplicate wells. Each compound was tested at least twice.
(§2) 2 Co mpound testing with DENV dn I FAPA assays. Final dn I assa y reaction mixtures
(§3) 3 contained 100 nM DENV 5 ´UTR-L-3´UTR IVT RNA, 20 µ M ATP, 20 µM GTP, 20 µM
(§4) 4 UTP, 5 µM ATTO -CTP, and 100 nM of DENV FL NS5 protein in 15 µl in assa y buffer
(§5) 5 comprising 50 mM Tris/ HCl, pH 7.5, 10 mM KCl, 1 mM MgCl2, 0.3 mM MnCl2 (DENV2
(§6) 6 and 4) or 1 mM MnCl 2 (DENV1 and 3), 0.001% Triton- X-100 and 10 µ M cystein e [ 1] . To
(§7) 7 perform dose-respons e inhibition measurements, compounds from 0- 20 or - 100 µM
(§8) 8 concentr ations are two -fold seriall y diluted into 384-well black opaqu e plat es (Corning
(§9) 9 Costar), after which 100 nM DENV FL NS5 protein was added into resp ect ive wells. The
(§10) 10 plates wer e sealed, b riefl y shak en and centrif uged at 1500 rpm for 30 sec and incubated at RT
(§11) 11 for 15 min. Thereafter,RNA and ATTO -CTP, ATP, GTP and UTP were added to the wells to
(§12) 12 start the reactions. The pl ates wer e re-seal ed, shaken and centrifuged as before, followed b y
(§13) 13 incubation RT for 120 min.
(§14) 15 intestinal phosphatase (CIP), re- incubation at RT for 60 min and read on a Tecan Safire II
(§15) 16 microplate reader. For o r der-of-addition experiments, DENV4 FL NS5 was incubated for one
(§16) 17 hour at RT with RNA, ATP, and GTP or RNA, ATP, GTP and ATTO-CTP, followed by
(§17) 18 exposure to seriall y dilut ed compounds for 20 mi n at RT. The missing components (ATTO-
(§18) 19 CTP and UTP or UTP alone) were added and the reactions continued for 120 min after which
(§19) 20 STOP buffer was added as before. All datapoints were performed in duplicate wells. Each
21 compound was tested at l east twice.
23 Compound testing in DENV1-4 infected cells by high content imaging. Approximatel y 7
24 × 10^3 A549 cells per well were s eeded into 384-well plates in Ham’s F-12K medium

DENV4 FL NS5 = biological target: T2, DENV4 FL NS5 (Dengue virus type 4, UniProt P09866); assay: biochemical; conditions: Enzyme + compound 20 min, then ssRNA and nucleotides, 2 hr; averaged from ≥3 experiments; read-out: DENV FL NS5 de novo initiation FAPA, IC50, DENV4
T2 construct: 100 nM DENV FL NS5 protein was added; made in house
T2 sequence (P09866 2488-3387): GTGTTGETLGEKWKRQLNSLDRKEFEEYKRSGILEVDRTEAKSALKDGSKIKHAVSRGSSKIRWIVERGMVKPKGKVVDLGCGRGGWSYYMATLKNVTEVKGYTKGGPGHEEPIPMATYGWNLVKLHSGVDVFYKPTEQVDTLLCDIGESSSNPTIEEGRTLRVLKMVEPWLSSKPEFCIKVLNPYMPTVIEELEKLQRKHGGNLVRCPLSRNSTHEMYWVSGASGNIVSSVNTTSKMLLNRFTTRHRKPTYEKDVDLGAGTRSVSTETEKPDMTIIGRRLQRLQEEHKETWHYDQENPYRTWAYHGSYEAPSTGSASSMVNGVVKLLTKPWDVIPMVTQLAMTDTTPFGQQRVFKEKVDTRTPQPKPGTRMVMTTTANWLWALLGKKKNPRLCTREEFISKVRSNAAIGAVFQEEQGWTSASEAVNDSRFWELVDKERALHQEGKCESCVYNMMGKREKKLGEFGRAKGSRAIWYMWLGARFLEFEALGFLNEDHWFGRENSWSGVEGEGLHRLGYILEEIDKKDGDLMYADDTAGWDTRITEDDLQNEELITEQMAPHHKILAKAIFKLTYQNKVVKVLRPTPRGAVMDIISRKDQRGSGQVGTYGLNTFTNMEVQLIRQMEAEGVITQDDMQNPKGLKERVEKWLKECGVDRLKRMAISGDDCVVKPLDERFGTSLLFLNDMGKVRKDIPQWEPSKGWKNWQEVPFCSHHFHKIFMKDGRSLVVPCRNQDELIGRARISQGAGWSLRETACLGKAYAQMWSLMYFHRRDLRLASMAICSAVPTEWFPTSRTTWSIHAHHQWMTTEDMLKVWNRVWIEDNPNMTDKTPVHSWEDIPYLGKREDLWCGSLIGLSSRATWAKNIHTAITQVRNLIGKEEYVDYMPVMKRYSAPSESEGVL
Description: as §1, §2, §3, §4, §5, §6, §7, §8, §9, §10, §11, §12, §13, §14, §15, §16, §17, §18, §19
21 compound was tested at l east twice. […]

DENV1, strain MY97-10245 = assay: DENV1 infected A549 cells, high content imaging (HCI); type: cell-based; conditions: 48 hr
Description: as §2, §3, §4, §5, §6, §7, §8, §9, §10, §11, §12
(§20) 13 incubation RT for 120 min. […]
as §14
(§21) 16 microplate reader. […]
(§22) 8 DENV envelope protein ) and DRAQ5 (for nucl ear DNA) . Quantifications of DENV
(§23) 9 envelope protein were determined using the Opera high content imaging s ystem and anal ysis […]
(§24) 17 µM concentrations. At 48 hr of post-incubation, r enilla luciferas e activities were measured […]

DENV3 strain MY05-34640 = assay: DENV3 infected A549 cells, high content imaging (HCI); type: cell-based; conditions: 48 hr
Description: as §2, §3, §4, §5, §6, §7, §8, §9, §10, §11, §12, §20, §14, §21, §22, §23, §24

[1] = system: clinical DENV2 isolate MY97-10340; assay: DENV2 infected A549 cells, high content imaging (HCI); type: cell-based; conditions: Dengue virus, 48 hr
Description: as §2, §3, §4, §5, §6, §7, §8, §9, §10, §11, §12, §20, §14, §21, §22, §23, §24

[2] = system: clinical isolates of DENV1-4; conditions: across four serotypes; cited from earlier work
DENV3 FL NS5 = biological target: T3, DENV3 FL NS5 (Dengue virus type 3, UniProt Q6YMS4); conditions: read-out: DENV FL NS5 de novo initiation FAPA, IC50, DENV3; cited from earlier work
T3 construct: 100 nM DENV FL NS5 protein was added; made in house
T3 sequence (Q6YMS4 2491-3390): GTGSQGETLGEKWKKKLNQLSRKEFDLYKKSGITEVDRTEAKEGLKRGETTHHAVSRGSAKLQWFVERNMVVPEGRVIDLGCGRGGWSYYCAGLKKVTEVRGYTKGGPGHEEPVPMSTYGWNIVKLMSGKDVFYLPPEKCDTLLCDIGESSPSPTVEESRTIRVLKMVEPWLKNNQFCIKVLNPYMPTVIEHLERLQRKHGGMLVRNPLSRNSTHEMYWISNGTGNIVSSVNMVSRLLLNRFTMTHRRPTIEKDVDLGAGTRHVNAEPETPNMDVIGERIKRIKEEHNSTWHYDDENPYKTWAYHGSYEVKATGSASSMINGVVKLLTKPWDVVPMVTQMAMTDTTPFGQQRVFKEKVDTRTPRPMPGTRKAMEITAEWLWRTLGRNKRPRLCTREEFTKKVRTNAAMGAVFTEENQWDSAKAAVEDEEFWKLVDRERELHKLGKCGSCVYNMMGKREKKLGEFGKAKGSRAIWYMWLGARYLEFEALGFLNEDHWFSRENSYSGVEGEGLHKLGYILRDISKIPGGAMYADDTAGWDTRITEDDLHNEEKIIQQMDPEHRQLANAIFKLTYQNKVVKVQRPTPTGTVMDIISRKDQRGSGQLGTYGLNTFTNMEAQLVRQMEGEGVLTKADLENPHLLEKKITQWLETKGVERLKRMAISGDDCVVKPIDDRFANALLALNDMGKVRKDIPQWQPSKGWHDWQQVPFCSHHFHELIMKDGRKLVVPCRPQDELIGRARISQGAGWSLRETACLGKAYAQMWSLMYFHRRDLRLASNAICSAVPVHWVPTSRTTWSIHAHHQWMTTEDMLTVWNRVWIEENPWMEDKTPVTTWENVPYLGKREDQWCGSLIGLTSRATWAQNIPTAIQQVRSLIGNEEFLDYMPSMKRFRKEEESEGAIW

Compound | IC50 (DENV2 FL NS5) [nM] | IC50 (DENV4 FL NS5) [nM] | EC50 (DENV1, strain MY97-10245) [nM] | EC50 (DENV3 strain MY05-34640) [nM] | EC50 [1] [nM] | EC50 [2] [nM] | IC50 (DENV3 FL NS5) [nM]
COc1cccc(S(=O)(=O)NC(=O)c2cc(-c3ccc(C#CCO)s3)c(OC)cc2C)c1 [Compound 26i] | 86 | 109 ± 61 | 15200 | 16800 | 26900 |  | 
COc1cccc(S(=O)(=O)NC(=O)c2cc(-c3ccc(C#CCO)s3)c(OC)cc2OC)c1 [Compound 27] |  |  |  |  |  | ~2000 | 48
